Test results as given in patent US20130177609A1, “Compositions and Methods for Increasing Bioavailability of Topical Ophthalmic Drugs” (priority 2008, published 2013).

Assay: Example 1: ocular tissue pharmacokinetics after topical dose, increasing dose volume at constant drug concentration
Type: in vivo, pigmented male rabbits (Dutch Belted)
Details: for AUC(0-t) / DNAUC / Cmax / Tmax: topical ocular; for Cmax / Tmax: male, Dutch Belted, rabbit, topical or ocular
Procedure: An aqueous suspension comprising 0.1 mg/mL of the compound having Formula III (BOL-303242-X), 100 mg/mL PEG 3350, and 10 mg/mL Tween® 80 was prepared substantially as disclosed above.
This study was carried out using a non-crossover design and a total of 84 naive pigmented male rabbits (Dutch Belted). Each rabbit was arbitrarily assigned to one of three dose groups.
On the day of dosing, each animal received a topical ocular dose of the suspension. Animals in Group 1 received a […] instillation, Group 2 received a 30-μL instillation and Group 3 received a 100-μL instillation. The target dose levels for these groups were 1, 3 and 10 μg/eye, respectively. The test composition was shipped to the test site as a ready-to-use suspension.
At predetermined time intervals after dosing, rabbits (four per collection time) were euthanized and the eyes enucleated and dissected. Samples of tear, conjunctiva, cornea, aqueous humor and iris/ciliary body were obtained from each animal and frozen until being shipped on dry ice to the analytical laboratory. Samples were collected at 0.0833, 0.25, 0.5, 1, 2, 4 and 6 hour after dosing. Concentrations of BOL-303242-X in ocular tissue samples were determined by LC/MS/MS. One or more samples of each tissue had concentrations that were below the lower limit of quantitation (“LLQ”). These samples were assigned a value of 0.5 times the LLQ for the purpose of calculating a mean concentration for pharmacokinetic (“PK”) analysis. In addition, the BOL-303242-X concentration measured in one tear sample collected at 6 hour was more than 100-fold higher than any other 6-hour sample for the same dose group. This value was considered to be an outlier, and was not included in any calculations.
Non-compartmental methods were used for pharmacokinetic analysis of concentration versus time data (WinNonlin version 5.2). Due to the destructive sampling regimen employed in this study average composite data were used in the PK analysis.

[1] = Conjunctiva, 10 μL of 0.1 mg/mL suspension (1 μg)
[2] = Conjunctiva, 30 μL of 0.1 mg/mL suspension (3 μg)
[3] = Conjunctiva, 100 μL of 0.1 mg/mL suspension (10 μg)
[4] = Cornea, 10 μL of 0.1 mg/mL suspension (1 μg)
[5] = Cornea, 30 μL of 0.1 mg/mL suspension (3 μg)
[6] = Cornea, 100 μL of 0.1 mg/mL suspension (10 μg)
[7] = Iris/Ciliary Body, 10 μL of 0.1 mg/mL suspension (1 μg)
[8] = Iris/Ciliary Body, 30 μL of 0.1 mg/mL suspension (3 μg)
[9] = Iris/Ciliary Body, 100 μL of 0.1 mg/mL suspension (10 μg)
[10] = Tear, 10 μL of 0.1 mg/mL suspension (1 μg)
[11] = Tear, 30 μL of 0.1 mg/mL suspension (3 μg)
[12] = Tear, 100 μL of 0.1 mg/mL suspension (10 μg)
[13] = 1 ug, Conjunctiva, 10 μL of 0.1 mg/mL suspension (1 μg)
[14] = 1 ug, Cornea, 10 μL of 0.1 mg/mL suspension (1 μg)
[15] = 1 ug, Iris/Ciliary Body, 10 μL of 0.1 mg/mL suspension (1 μg)
[16] = 1 ug, Tear, 10 μL of 0.1 mg/mL suspension (1 μg)
[17] = 3 ug, Conjunctiva, 30 μL of 0.1 mg/mL suspension (3 μg)
[18] = 3 ug, Cornea, 30 μL of 0.1 mg/mL suspension (3 μg)
[19] = 3 ug, Iris/Ciliary Body, 30 μL of 0.1 mg/mL suspension (3 μg)
[20] = 3 ug, Tear, 30 μL of 0.1 mg/mL suspension (3 μg)
[21] = 10 ug, Conjunctiva, 100 μL of 0.1 mg/mL suspension (10 μg)
[22] = 10 ug, Cornea, 100 μL of 0.1 mg/mL suspension (10 μg)
[23] = 10 ug, Iris/Ciliary Body, 100 μL of 0.1 mg/mL suspension (10 μg)
[24] = 10 ug, Tear, 100 μL of 0.1 mg/mL suspension (10 μg)

- AUC(0-t) [1]: 245 ng·h/g
- DNAUC [1]: 245 ng*hr/g ÷ μg dose
- AUC(0-t) [2]: 487 ng·h/g
- DNAUC [2]: 162 ng*hr/g ÷ μg dose
- AUC(0-t) [3]: 741 ng·h/g
- DNAUC [3]: 74.1 ng*hr/g ÷ μg dose
- AUC(0-t) [4]: 270 ng·h/g
- DNAUC [4]: 270 ng*hr/g ÷ μg dose
- AUC(0-t) [5]: 634 ng·h/g
- DNAUC [5]: 211 ng*hr/g ÷ μg dose
- AUC(0-t) [6]: 955 ng·h/g
- DNAUC [6]: 95.5 ng*hr/g ÷ μg dose
- AUC(0-t) [7]: 32.0 ng·h/g
- DNAUC [7]: 32.0 ng*hr/g ÷ μg dose
- AUC(0-t) [8]: 33.8 ng·h/g
- DNAUC [8]: 11.3 ng*hr/g ÷ μg dose
- AUC(0-t) [9]: 30.5 ng·h/g
- DNAUC [9]: 3.05 ng*hr/g ÷ μg dose
- AUC(0-t) [10]: 8870 ng·h/g
- DNAUC [10]: 8870 ng*hr/g ÷ μg dose
- AUC(0-t) [11]: 12600 ng·h/g
- DNAUC [11]: 4200 ng*hr/g ÷ μg dose
- AUC(0-t) [12]: 25600 ng·h/g
- DNAUC [12]: 2560 ng*hr/g ÷ μg dose
- Cmax (1 ug, Aqueous Humor, 10 μL of 0.1 mg/mL suspension (1 μg)): < 1 ng/mL
- Cmax [13]: 292 ± 137 ng/g
- Tmax [13]: 4.98 min
- Cmax [14]: 288 ± 116 ng/g
- Tmax [14]: 15 min
- Cmax [15]: 19.6 ± 29.8 ng/g
- Tmax [15]: 60 min
- Cmax [16]: 16300 ± 7000 ng/g
- Tmax [16]: 4.98 min
- Cmax (3 ug, Aqueous Humor, 30 μL of 0.1 mg/mL suspension (3 μg)): < 1 ng/mL
- Cmax [17]: 684 ± 446 ng/g
- Tmax [17]: 4.98 min
- Cmax [18]: 716 ± 234 ng/g
- Tmax [18]: 4.98 min
- Cmax [19]: 13.1 ± 19 ng/g
- Tmax [19]: 120 min
- Cmax [20]: 28100 ± 11300 ng/g
- Tmax [20]: 15 min
- Cmax (10 ug, Aqueous Humor, 100 μL of 0.1 mg/mL suspension (10 μg)): < 1 ng/mL
- Cmax [21]: 1050 ± 531 ng/g
- Tmax [21]: 4.98 min
- Cmax [22]: 955 ± 619 ng/g
- Tmax [22]: 4.98 min
- Cmax [23]: 11.3 ± 8.05 ng/g
- Tmax [23]: 60 min
- Cmax [24]: 36700 ± 21400 ng/g
- Tmax [24]: 15 min
Compound: Cc1ccc2c(NCC(O)(CC(C)(C)c3cc(F)cc4c3OCC4)C(F)(F)F)cccc2n1 (stereo not shown) [BOL-303242-X]
- increase in exposure with increasing instillation volume (tear, cornea and conjunctiva, 10, 30, 100 μL of 0.1 mg/mL): less than proportional to the administered dose/volume
